The supplement of paper PMC10307832

Columns and labels:
Assay in all cases: relative viability (nuclei count vs DMSO), 5 days (fraction); higher = more cells survive
PAC-1 + Tozasertib = compound: C=CCc1cccc(/C=N/NC(=O)CN2CCN(Cc3ccccc3)CC2)c1O [PAC-1] + Cc1cc(Nc2cc(N3CCN(C)CC3)nc(Sc3ccc(NC(=O)C4CC4)cc3)n2)n[nH]1 [Tozasertib] (partner 0.1 µM)
Summary of the method: (§1)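 Lung cancer cell lines, seeded in 1536-well plates, were treated the following day by pin tool with a single drug or with five library-drug doses (not always all listed) in √10 steps on top of a fixed anchor-drug dose. Cells were fixed and nuclei stained in one step after 5 days, and nuclei were counted. Relative viability is the nuclei count for treated wells divided by that for vehicle wells, reported as medians of duplicate plates.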

BMX-IN-1 + Pemetrexed = compound: C=CC(=O)Nc1cc(-n2c(=O)ccc3cnc4ccc(-c5ccc(NS(C)(=O)=O)cc5)cc4c32)ccc1C [BMX-IN-1] + Nc1nc2[nH]cc(CCc3ccc(C(=O)N[C@@H](CCC(=O)O)C(=O)O)cc3)c2c(=O)[nH]1 [Pemetrexed] (partner 0.2 µM)
Summary of the method: as §1

PAC-1 + Dasatinib = compound: C=CCc1cccc(/C=N/NC(=O)CN2CCN(Cc3ccccc3)CC2)c1O [PAC-1] + Cc1nc(Nc2ncc(C(=O)Nc3c(C)cccc3Cl)s2)cc(N2CCN(CCO)CC2)n1 [Dasatinib] (partner 0.075 µM)
Summary of the method: as §1

BMX-IN-1 + Alpelisib = compound: C=CC(=O)Nc1cc(-n2c(=O)ccc3cnc4ccc(-c5ccc(NS(C)(=O)=O)cc5)cc4c32)ccc1C [BMX-IN-1] + Cc1nc(NC(=O)N2CCC[C@H]2C(N)=O)sc1-c1ccnc(C(C)(C)C(F)(F)F)c1 [Alpelisib] (partner 2 µM)
Summary of the method: as §1

BMX-IN-1 + Vorinostat = compound: C=CC(=O)Nc1cc(-n2c(=O)ccc3cnc4ccc(-c5ccc(NS(C)(=O)=O)cc5)cc4c32)ccc1C [BMX-IN-1] + O=C(CCCCCCC(=O)Nc1ccccc1)NO [Vorinostat] (partner 1 µM)
Summary of the method: as §1

Cell Line | relative viability (PAC-1 + Tozasertib; first compound 0.02 µM) | relative viability (PAC-1 + Tozasertib; first compound 0.06325 µM) | relative viability (PAC-1 + Tozasertib; first compound 0.2 µM) | relative viability (PAC-1 + Tozasertib; first compound 2 µM) | relative viability (BMX-IN-1 + Pemetrexed; first compound 0.02 µM) | relative viability (BMX-IN-1 + Pemetrexed; first compound 0.2 µM) | relative viability (BMX-IN-1 + Pemetrexed; first compound 0.6325 µM) | relative viability (BMX-IN-1 + Pemetrexed; first compound 2 µM) | relative viability (PAC-1 + Dasatinib; first compound 0.02 µM) | relative viability (PAC-1 + Dasatinib; first compound 0.06325 µM) | relative viability (PAC-1 + Dasatinib; first compound 0.2 µM) | relative viability (PAC-1 + Dasatinib; first compound 2 µM) | relative viability (BMX-IN-1 + Alpelisib; first compound 0.02 µM) | relative viability (BMX-IN-1 + Alpelisib; first compound 0.2 µM) | relative viability (BMX-IN-1 + Alpelisib; first compound 0.6325 µM) | relative viability (BMX-IN-1 + Alpelisib; first compound 2 µM) | relative viability (BMX-IN-1 + Vorinostat; first compound 0.02 µM) | relative viability (BMX-IN-1 + Vorinostat; first compound 0.2 µM) | relative viability (BMX-IN-1 + Vorinostat; first compound 0.6325 µM) | relative viability (BMX-IN-1 + Vorinostat; first compound 2 µM)
HCC-78 | 0.486 | 0.399 | 0.496 | 0.342 | 0.971 | 0.989 | 0.935 | 0.913 | 0.335 | 0.331 | 0.404 | 0.394 | 0.355 | 0.319 | 0.391 | 0.175 | 0.383 | 0.438 | 0.431 | 0.41
HCC-366 | 0.117 | 0.0944 | 0.121 | 0.0773 | 0.163 | 0.183 | 0.165 | 0.202 | 0.618 | 0.558 | 0.617 | 0.733 | 0.704 | 0.575 | 0.412 | 0.354 | 0.791 | 0.342 | 0.373 | 0.33
HCC-827 | 0.397 | 0.401 | 0.4 | 0.421 | 0.237 | 0.297 | 0.287 | 0.235 | 0.277 | 0.325 | 0.297 | 0.293 | 0.95 | 0.889 | 1.05 | 0.946 | 0.485 | 0.872 | 1.11 | 0.798
HOP-62 | 0.346 | 0.395 | 0.349 | 0.355 | 0.267 | 0.364 | 0.342 | 0.223 | 0.665 | 0.68 | 0.623 | 0.641 | 0.813 | 0.918 | 0.926 | 0.914 | 0.742 | 0.755 | 0.613 | 0.559
IA-LM | – | – | – | – | – | – | – | – | – | – | – | – | 0.854 | 0.697 | 1.07 | 0.916 | 0.797 | 0.807 | 1.03 | 0.722
LC-2-ad | 0.456 | 0.48 | 0.357 | 0.449 | 0.265 | 0.28 | 0.277 | 0.281 | 0.552 | 0.629 | 0.603 | 0.489 | 0.915 | 0.962 | 0.998 | 0.898 | 0.74 | 0.766 | 0.674 | 0.783
LCLC-97TM1 | 0.22 | 0.286 | 0.217 | 0.225 | 0.142 | 0.191 | 0.195 | 0.2 | 0.692 | 0.848 | 0.748 | 0.911 | 0.283 | 0.222 | 0.244 | 0.294 | 0.724 | 1.08 | 1.04 | 0.842
LCLC-103H | 0.56 | 0.492 | 0.494 | 0.463 | 0.444 | 0.546 | 0.467 | 0.418 | 0.485 | 0.472 | 0.409 | 0.487 | 1.01 | 0.972 | 1.09 | 0.875 | 0.724 | 0.823 | 0.882 | 0.842
LK-2 | 0.174 | 0.186 | 0.199 | 0.175 | 0.163 | 0.256 | 0.254 | 0.225 | 0.259 | 0.332 | 0.241 | 0.31 | 1.75 | 1.43 | 1.04 | 0.993 | 0.289 | 0.151 | 0.282 | 0.365
